This note sets out measurements from patent publication US7906507B2, “Oxadiazoanthracene compounds for the treatment of diabetes” (TransTech Pharma, Inc., priority 2008, dated 2011).

This experiment concerns the target T1, cloned human GLP-1 receptor (Homo sapiens, UniProt P43220).
T1 construct: expressed in transfected cells; host or cells: CHO or HEK-293 cells
As to the kind of experiment: Functional cell-based assay: cAMP functional assay. The following applies: for Emax: 0.5 h, percentage relative to maximal GLP-1-induced cAMP accumulation, na = not active in the assay, read-out: % activation. The protocol: Following overnight incubation of cells, media was removed, and compounds (at concentrations ranging from 0.0001 to 100 μM) were added to monolayer cells in Iscove's modified dulbecco's medium (IMDM), 100 μM RO 20-1724 PDE inhibitor, 0.1% BSA, 2% DMSO in a final volume of 100 μL, and incubated for 30 min at 37° C. 95% O2, 5% CO2 in a humidified incubator. cAMP was quantitated using a homogenous time-resolved fluorescence detection system (cAMP dynamic, CIS bio International).

T1 sequence (P43220 24-463): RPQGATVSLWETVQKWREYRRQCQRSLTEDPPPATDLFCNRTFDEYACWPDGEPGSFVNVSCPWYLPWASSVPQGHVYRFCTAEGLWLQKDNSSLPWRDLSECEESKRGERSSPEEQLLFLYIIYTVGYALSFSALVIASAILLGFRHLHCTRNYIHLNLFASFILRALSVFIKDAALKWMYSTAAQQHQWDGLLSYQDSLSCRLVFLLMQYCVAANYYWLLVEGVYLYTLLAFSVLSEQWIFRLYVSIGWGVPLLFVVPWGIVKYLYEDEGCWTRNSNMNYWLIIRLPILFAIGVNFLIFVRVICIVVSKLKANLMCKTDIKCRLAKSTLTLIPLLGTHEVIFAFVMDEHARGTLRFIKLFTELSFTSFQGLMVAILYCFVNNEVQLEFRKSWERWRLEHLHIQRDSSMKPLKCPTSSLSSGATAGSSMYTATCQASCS

In the case of `Cc1cccc(C(=O)N2Cc3cc4c(cc3C[C@H]2C(=O)N[C@@H](Cc2ccc(-c3ccc(C#N)cc3)cc2)C(=O)O)NC(=O)C(c2ccc(OCc3ccc(Cl)c(Cl)c3)cc2)O4)c1` (stereo partly drawn) [Example 21, (S)-3-(4′-Cyano-biphenyl-4-yl)-2-{[(S)-3-[4-(3,4-dichloro-benzyloxy)-phenyl]-6-(3-methyl-benzoyl)-2-oxo-2,3,5,6,7,8-hexahydro-1H-4-oxa-1,6-diaza-anthracene-7-carbonyl]-amino}-propionic acid], the EC50 turned out to be 0.399 µM and the Emax is 70.3%.
For `N#Cc1ccc(-c2ccc(C[C@H](NC(=O)[C@@H]3Cc4cc5c(cc4CN3C(=O)c3ccc(F)cc3)OC(c3ccc(OCc4ccc(Cl)c(Cl)c4)cc3)C(=O)N5)C(=O)O)cc2)cc1` (stereo partly drawn) [Example 22, (S)-3-(4′-Cyano-biphenyl-4-yl)-2-{[(S)-3-[4-(3,4-dichloro-benzyloxy)-phenyl]-6-(4-fluoro-benzoyl)-2-oxo-2,3,5,6,7,8-hexahydro-1H-4-oxa-1,6-diaza-anthracene-7-carbonyl]-amino}-propionic acid] the same measures were 0.891 µM and 73.5%.
Turning to `COc1ccc(C(=O)N2Cc3cc4c(cc3C[C@H]2C(=O)N[C@@H](Cc2ccc(-c3ccc(C#N)cc3)cc2)C(=O)O)NC(=O)C(c2ccc(OCc3ccc(Cl)c(Cl)c3)cc2)O4)cc1` (stereo partly drawn) [Example 23, (S)-3-(4′-Cyano-biphenyl-4-yl)-2-{[(S)-3-[4-(3,4-dichloro-benzyloxy)-phenyl]-6-(4-methoxy-benzoyl)-2-oxo-2,3,5,6,7,8-hexahydro-1H-4-oxa-1,6-diaza-anthracene-7-carbonyl]-amino}-propionic acid], the EC50 amounted to 1.28 µM and the Emax amounted to 65.5%.
The corresponding values for `N#Cc1ccc(-c2ccc(C[C@H](NC(=O)[C@@H]3Cc4cc5c(cc4CN3C(=O)c3cccc(C(F)(F)F)c3)OC(c3ccc(OCc4ccc(Cl)c(Cl)c4)cc3)C(=O)N5)C(=O)O)cc2)cc1` (stereo partly drawn) [Example 24, (S)-3-(4′-Cyano-biphenyl-4-yl)-2-{[(S)-3-[4-(3,4-dichloro-benzyloxy)-phenyl]-2-oxo-6-(3-trifluoromethyl-benzoyl)-2,3,5,6,7,8-hexahydro-1H-4-oxa-1,6-diaza-anthracene-7-carbonyl]-amino}-propionic acid] are 1.6 µM and 53%.
For `N#Cc1ccc(-c2ccc(C[C@H](NC(=O)[C@@H]3Cc4cc5c(cc4CN3C(=O)C3CCCCC3)OC(c3ccc(OCc4ccc(Cl)c(Cl)c4)cc3)C(=O)N5)C(=O)O)cc2)cc1` (stereo partly drawn) [Example 25, (S)-3-(4′-Cyano-biphenyl-4-yl)-2-({(S)-6-cyclohexanecarbonyl-3-[4-(3,4-dichloro-benzyloxy)-phenyl]-2-oxo-2,3,5,6,7,8-hexahydro-1H-4-oxa-1,6-diaza-anthracene-7-carbonyl}-amino)-propionic acid] the same measures were 0.594 µM and 12%.
The corresponding values for `N#Cc1ccc(-c2ccc(C[C@H](NC(=O)[C@@H]3Cc4cc5c(cc4CN3C(=O)c3cccc4ccccc34)OC(c3ccc(OCc4ccc(Cl)c(Cl)c4)cc3)C(=O)N5)C(=O)O)cc2)cc1` (stereo partly drawn) [Example 26, (S)-3-(4′-Cyano-biphenyl-4-yl)-2-{[(S)-3-[4-(3,4-dichloro-benzyloxy)-phenyl]-6-(naphthalene-1-carbonyl)-2-oxo-2,3,5,6,7,8-hexahydro-1H-4-oxa-1,6-diaza-anthracene-7-carbonyl]-amino}-propionic acid] are 1.1 µM and 14%.
Turning to `N#Cc1ccc(-c2ccc(C[C@H](NC(=O)[C@@H]3Cc4cc5c(cc4CN3C(=O)c3cccs3)OC(c3ccc(OCc4ccc(Cl)c(Cl)c4)cc3)C(=O)N5)C(=O)O)cc2)cc1` (stereo partly drawn) [Example 28, (S)-3-(4′-Cyano-biphenyl-4-yl)-2-{[(S)-3-[4-(3,4-dichloro-benzyloxy)-phenyl]-2-oxo-6-(thiophene-2-carbonyl)-2,3,5,6,7,8-hexahydro-1H-4-oxa-1,6-diaza-anthracene-7-carbonyl]-amino}-propionic acid], the half-maximal effective concentration (EC50) amounted to 0.398 µM and the Emax came to 29%.
